US5169984A, “Synthesis and characterization of N-bromoacetyl-3,3'5-triiodo-L-thyronine using high speed countercurrent chromatography” (The United States of America as represented by the …, priority 1990, dated 1992)

Conditions: crude, prior to HSCCC; ethyl acetate, well-sealed container, -20° C., over four months
Experimental: Chromatograms were monitored by radioactivity. In FIG. 2A the sample was freshly prepared while in FIG. 2B the sample was stored for 4.2 months in ethyl acetate at -20° C. […] Other conditions were the same as in FIGS. 1A and 1B.

- decomposition on storage: partial decomposition
SMILES: O=C(CBr)N[C@@H](Cc1cc(I)c(Oc2ccc(O)c(I)c2)c(I)c1)C(=O)O [BrAc[^125 I]T3, ^125 I-labeled N-bromoacetyl-3,3',5-triiodo-L-thyronine]
